For series [1], the target named is EGFR (human epidermal growth factor receptor) (Homo sapiens (Human), UniProt P00533). In words: In vitro kinase inhibitory activity, EGFR. It counts as biochemical. How it is done:
(§1) Stop buffer was prepared from 100 mM HEPES, pH 7.5, 0.015% Brij-35, 0.2% Coating Reagent #3, and 50 mM EDTA.
(§2) Kinase reaction was performed according to the following procedures: (1) 2.5× kinase solution was prepared by adding kinase into 1× kinase base buffer; (2) 2.5× peptide solution was prepared by adding FAM-labeled peptide and ATP into 1× kinase base buffer; (3) 2.5× kinase solution (10 μL) was added to each well of the 384-well assay plate containing 5 μL of compound in 10% DMSO and then the assay plate was incubated at room temperature for 10 minutes; (4) 2.5× peptide solution (10 μL) was added to each well of the 384-well assay plate; and (5) stop buffer (25 μL) was added to stop the kinase reaction after incubation at 28° C. for a specified period of time.
(§3) Multifunctional microplate reader (BMG LABTECH, PHER Astar FS) with a 320 nm excitation wavelength was used to read and collected the data of by absorbing light at […], which was converted from the rate of 665 signal/620 signal.
(§4) Conversion data were copied, and then converted to inhibition values with the following formula: percent inhibition=(max−conversion)/(max−min)*100 where “max” stands for the DMSO control value, “conversion” stands for the sample value and “[…]” stands for the no-kinase control value. The data were fitted in XLfit to obtain IC50 values.

For series [2], the target named is HER2 (human epidermal growth factor receptor 2) (Homo sapiens (Human), UniProt P04626). In words: In vitro kinase inhibitory activity, HER-2. Type of series: biochemical. The method, then: as §1
as §2, with “time. […]” for “time.”
as §4

Series [3] concerns the target EGFR T790M (human epidermal growth factor receptor T790M mutation) (Homo sapiens (Human), UniProt P00533, T790M). In words: In vitro kinase inhibitory activity, EGFR T790M. Type of series: biochemical. The method, then:
as §1, §2, §3, §4

Series [4] in a line: Rat PK (pharmacokinetics after iv and po administration). It counts as in vivo. The settings on record: male, SD, plasma; for Vd: read-out: Vss. An excerpt:
Materials used include Propranolol (internal standard), methyl alcohol, ammonium acetate, K2EDTA (potassium ethylenediaminetetraacetate), methane acid, acetonitrile, MTBE (methyl tert-butyl ether), Cremophor EL (polyoxyethylated castor oil), KolliphorHS 15 (polyethylene glycol 12-hydroxystearate), DMSO (dimethylsulfoxide), PEG400 (polyethylene glycol 400) and SD rat (male, 180-220 g, 7-8 weeks old, purchased from Hunan Slack King of Laboratory Animal Co., Ltd.), all of which are commercially available.
Each test compound prepared in above examples was completely dissolved in a mixture of 5% DMSO, 5% KolliphorHS 15 and 90% saline.
(1) The test sample stock solution was prepared by dissolving an accurately weighed test sample in DMSO followed by dilution to the concentration of 1 mg/mL with acetonitrile. The stock solution was stored under the condition of −20° C. for later use.
(2) Internal standard solution was prepared by diluting a certain amount of the Propranolol stock solution in the concentration of 1 mg/mL to 100 ng/mL with water.
Samples treated with liquid-liquid extraction and chromatographic separation were analyzed by triple quadrupole tandem mass spectrometer in multiple reaction monitoring (MRM) mode for quantitative analysis.
Pretreatment of plasma sample was performed according to the following procedures: (1) plasma sample (30 μL) was precisely measured, and internal standard (250 μL) was then added to the plasma sample which was then mixed by vortexing; (2) the sample was extracted once with 1 mL of MTBE and then centrifuged at 13000 rpm for 2 minutes at 4° C.; (3) supernatant (800 μL) was aspirated and dried with 96 holes nitrogen gas blowing; (4) the residue was dissolved with 150 μL of a mixture of methanol and water (v/v=1/1) and then mixed by vortexing; and (5) sampling: sample quantity was 8 μL.
Preparation of standard sample was performed according to the following procedures: (1) a pre-determined amount of the compound stock solution was precisely measured, and then was diluted to standard series of solution with acetonitrile; (2) each of the standard solution (20 μL) prepared above was precisely measured and to each was added 180 μL of blank plasma; (3) each sample was mixed by vortexing to obtain series of standard samples in which the plasma concentration was 3, 5, 10, 30, 100, 300, 1000, 3000, 5000 or 10000 ng/mL; and (4) standard curve was established.
The content of each test compound in rat plasma after administration was determined by LC/MS/MS.
Noncompartmental analysis to calculate pharmacokinetic parameters was performed with WinNonlin 6.1 software.

[5] abbreviates: iv(2 g/kg) [sic], method says 2 mg/kg.
[6] abbreviates: po(5 g/kg) [sic], method says 5 mg/kg.

Each structure is given as a SMILES string.

By IC50 is commonly meant the midpoint of a concentration-inhibition curve. Read a high IC50 as a need for much substance. The term AUC(0-t) denotes exposure summed from dosing to a finite time, without extrapolation to infinity. The low end stands for low exposure, the high end for high exposure. The Cmax is the highest concentration seen after dosing. As usually defined, the half-life is the time in which the quantity being followed falls by half. A lower half-life goes with rapid decline. The term bioavailability denotes the share of a dose that reaches the circulation, judged against a reference dose that is usually intravenous.

HER2 (human epidermal growth factor receptor 2), sequence (P04626 23-1255): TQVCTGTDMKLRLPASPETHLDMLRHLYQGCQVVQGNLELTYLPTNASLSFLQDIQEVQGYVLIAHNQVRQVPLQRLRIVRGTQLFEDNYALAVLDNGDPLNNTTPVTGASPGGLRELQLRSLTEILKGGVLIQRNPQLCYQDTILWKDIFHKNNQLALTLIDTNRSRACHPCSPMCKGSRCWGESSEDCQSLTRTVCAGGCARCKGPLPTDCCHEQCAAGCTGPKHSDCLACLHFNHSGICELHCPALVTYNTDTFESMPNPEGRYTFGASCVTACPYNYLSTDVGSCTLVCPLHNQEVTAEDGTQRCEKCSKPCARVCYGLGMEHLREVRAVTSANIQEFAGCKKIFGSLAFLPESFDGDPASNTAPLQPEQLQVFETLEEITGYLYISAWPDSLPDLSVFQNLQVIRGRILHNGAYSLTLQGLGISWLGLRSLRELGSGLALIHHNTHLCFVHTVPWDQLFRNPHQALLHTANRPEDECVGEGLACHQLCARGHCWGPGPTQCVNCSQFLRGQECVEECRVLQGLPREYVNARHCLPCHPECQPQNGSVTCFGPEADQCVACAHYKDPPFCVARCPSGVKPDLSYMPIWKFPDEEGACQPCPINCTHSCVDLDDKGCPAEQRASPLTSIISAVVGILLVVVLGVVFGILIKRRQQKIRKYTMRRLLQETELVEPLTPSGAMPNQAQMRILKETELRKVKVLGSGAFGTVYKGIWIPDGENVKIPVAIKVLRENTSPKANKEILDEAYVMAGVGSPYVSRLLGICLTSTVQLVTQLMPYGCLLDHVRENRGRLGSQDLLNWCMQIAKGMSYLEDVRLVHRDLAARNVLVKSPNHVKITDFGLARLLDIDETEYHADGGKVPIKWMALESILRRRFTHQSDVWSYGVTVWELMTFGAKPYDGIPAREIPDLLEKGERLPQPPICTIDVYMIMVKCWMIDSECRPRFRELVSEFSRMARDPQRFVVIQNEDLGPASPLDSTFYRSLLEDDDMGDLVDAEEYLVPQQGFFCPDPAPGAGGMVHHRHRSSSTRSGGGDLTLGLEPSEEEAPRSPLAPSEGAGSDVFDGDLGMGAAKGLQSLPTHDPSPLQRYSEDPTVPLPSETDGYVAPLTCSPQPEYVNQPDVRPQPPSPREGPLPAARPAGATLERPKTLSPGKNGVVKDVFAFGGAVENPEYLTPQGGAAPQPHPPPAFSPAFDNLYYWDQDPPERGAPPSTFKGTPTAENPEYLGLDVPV
EGFR T790M (human epidermal growth factor receptor T790M mutation), sequence (P00533 25-1210 T790M): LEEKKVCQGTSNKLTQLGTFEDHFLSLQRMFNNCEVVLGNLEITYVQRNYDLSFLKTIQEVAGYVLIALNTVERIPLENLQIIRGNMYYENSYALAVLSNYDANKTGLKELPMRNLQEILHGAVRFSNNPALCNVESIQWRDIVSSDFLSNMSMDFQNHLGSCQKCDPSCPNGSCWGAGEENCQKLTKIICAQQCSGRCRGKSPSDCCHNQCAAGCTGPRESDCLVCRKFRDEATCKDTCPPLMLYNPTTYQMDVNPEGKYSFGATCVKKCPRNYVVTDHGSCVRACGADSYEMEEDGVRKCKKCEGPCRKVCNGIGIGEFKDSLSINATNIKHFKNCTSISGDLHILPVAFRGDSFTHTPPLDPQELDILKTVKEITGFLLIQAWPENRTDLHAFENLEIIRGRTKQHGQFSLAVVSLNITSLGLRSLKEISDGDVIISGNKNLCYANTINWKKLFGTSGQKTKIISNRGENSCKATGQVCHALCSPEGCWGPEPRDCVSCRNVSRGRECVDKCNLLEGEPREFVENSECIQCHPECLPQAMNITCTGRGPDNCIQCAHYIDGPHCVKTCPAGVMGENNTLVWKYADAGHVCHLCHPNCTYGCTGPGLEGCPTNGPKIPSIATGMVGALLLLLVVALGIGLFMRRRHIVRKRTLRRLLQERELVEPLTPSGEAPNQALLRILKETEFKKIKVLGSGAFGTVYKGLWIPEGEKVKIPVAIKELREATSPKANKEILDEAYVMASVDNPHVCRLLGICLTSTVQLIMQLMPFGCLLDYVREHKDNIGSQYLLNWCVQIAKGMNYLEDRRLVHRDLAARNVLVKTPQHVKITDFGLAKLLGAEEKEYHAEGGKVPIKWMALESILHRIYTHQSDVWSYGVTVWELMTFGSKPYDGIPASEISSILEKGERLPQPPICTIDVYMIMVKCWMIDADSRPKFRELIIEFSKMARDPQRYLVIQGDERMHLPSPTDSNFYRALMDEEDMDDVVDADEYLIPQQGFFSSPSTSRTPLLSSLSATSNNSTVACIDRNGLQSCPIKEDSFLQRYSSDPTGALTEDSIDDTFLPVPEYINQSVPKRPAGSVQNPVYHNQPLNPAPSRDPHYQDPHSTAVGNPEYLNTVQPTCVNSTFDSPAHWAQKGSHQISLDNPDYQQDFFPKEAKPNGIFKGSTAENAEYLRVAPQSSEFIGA
EGFR (human epidermal growth factor receptor), sequence (P00533 25-1210): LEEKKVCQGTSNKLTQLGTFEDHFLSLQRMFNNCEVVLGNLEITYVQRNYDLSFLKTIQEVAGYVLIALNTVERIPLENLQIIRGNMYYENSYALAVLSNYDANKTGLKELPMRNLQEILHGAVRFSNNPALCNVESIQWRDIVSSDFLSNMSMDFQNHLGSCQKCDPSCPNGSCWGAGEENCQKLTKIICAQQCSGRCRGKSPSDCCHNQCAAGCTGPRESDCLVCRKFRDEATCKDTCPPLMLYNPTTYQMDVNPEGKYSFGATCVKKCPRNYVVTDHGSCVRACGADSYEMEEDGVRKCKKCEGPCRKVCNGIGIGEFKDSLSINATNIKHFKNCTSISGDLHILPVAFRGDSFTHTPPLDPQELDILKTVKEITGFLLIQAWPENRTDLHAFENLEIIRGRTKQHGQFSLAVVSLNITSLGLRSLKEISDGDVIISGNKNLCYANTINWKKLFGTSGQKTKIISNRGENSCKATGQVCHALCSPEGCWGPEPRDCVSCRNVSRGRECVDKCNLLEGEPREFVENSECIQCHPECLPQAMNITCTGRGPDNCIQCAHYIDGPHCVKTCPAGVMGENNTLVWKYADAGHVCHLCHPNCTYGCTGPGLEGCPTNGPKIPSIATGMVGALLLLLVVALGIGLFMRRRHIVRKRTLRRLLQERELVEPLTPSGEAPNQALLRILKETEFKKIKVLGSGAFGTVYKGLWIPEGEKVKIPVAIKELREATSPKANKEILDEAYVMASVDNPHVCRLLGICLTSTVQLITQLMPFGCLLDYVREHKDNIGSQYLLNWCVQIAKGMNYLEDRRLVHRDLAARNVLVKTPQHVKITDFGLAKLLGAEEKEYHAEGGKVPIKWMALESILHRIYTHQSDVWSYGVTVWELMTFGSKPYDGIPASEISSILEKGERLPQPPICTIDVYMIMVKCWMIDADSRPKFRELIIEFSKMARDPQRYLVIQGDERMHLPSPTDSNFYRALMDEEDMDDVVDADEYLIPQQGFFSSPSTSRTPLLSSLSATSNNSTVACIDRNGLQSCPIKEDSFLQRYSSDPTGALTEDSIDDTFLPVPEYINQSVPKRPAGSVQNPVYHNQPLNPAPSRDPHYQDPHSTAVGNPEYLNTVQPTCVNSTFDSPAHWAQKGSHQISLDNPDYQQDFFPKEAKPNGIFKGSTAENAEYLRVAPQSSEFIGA

Consider `CCOc1cc2ncnc(Nc3ccc(F)c(Cl)c3)c2cc1NC(=O)/C=C/CN1C[C@@H]2OCCO[C@@H]2C1` [Example 3, (E)-N-(4-((3-Chloro-4-fluorophenyl)amino)-7-ethoxyquinazolin-6-yl)-4-((4aR,7aS)-tetrahydro-2H-[1,4]dioxin[2,3-c]pyrrol-6(3H)-yl)but-2-enamide], for which the IC50 is 6.4 nM in series [1], 8.1 nM in series [2] and 6.2 nM in series [3].

Regarding `O=C(/C=C/CN1C[C@@H]2OCCO[C@@H]2C1)Nc1cc2c(Nc3ccc(F)c(Cl)c3)ncnc2cc1O[C@H]1CCOC1` [Example 5, (E)-N-(4-((3-Chloro-4-fluorophenyl)amino)-7-(((S)-tetrahydrofuran-3-yl)oxy)quinazolin-6-yl)-4-((4aR,7aS)-tetrahydro-2H-[1,4]dioxino[2,3-c]pyrrol-6(3H)-yl)but-2-enamide], the IC50 in series [1] turned out to be 3.6 nM; in series [2] it was 11.7 nM; in series [3], 6.8 nM.

For `COCCOc1cc2ncnc(Nc3ccc(F)c(Cl)c3)c2cc1NC(=O)/C=C/CN1C[C@@H]2OCCO[C@@H]2C1` [Example 6, (E)-N-(4-((3-Chloro-4-fluorophenyl)amino)-7-(2-methoxyethoxy)quinazolin-6-yl)-4-((4aR,7aS)-tetrahydro-2H-[1,4]dioxino[2,3-c]pyrrol-6(3H)-yl)but-2-enamide], the IC50 in series [1] is 1.8 nM; in series [2], 10.4 nM; in series [3], 8.7 nM.

Consider `O=C(/C=C/CN1C[C@@H]2OCCO[C@@H]2C1)Nc1cc2c(Nc3ccc(F)c(Cl)c3)ncnc2cc1OCC(F)(F)F` [Example 7, (E)-N-(4-((3-Chloro-4-fluorophenyl)amino)-7-(2,2,2-trifluoroethoxy)quinazolin-6-yl)-4-((4aR,7aS)-tetrahydro-2H-[1,4]dioxino[2,3-c]pyrrol-6(3H)-yl)but-2-enamide], for which the results for the IC50 in series [1], in series [2] and in series [3] were 15.4 nM, 44 nM and 22.6 nM, respectively.

Turning to `[2H]C([2H])([2H])Oc1cc2ncnc(Nc3ccc(F)c(Cl)c3)c2cc1NC(=O)/C=C/CN1C[C@@H]2OCCO[C@@H]2C1` [Example 20, (E)-N-(4-((3-Chloro-4-fluorophenyl)amino)-7-(methoxy-D3)quinazolin-6-yl)-4-((4aR,7aS)-tetrahydro 2H-[1,4]dioxino[2,3-c]pyrrol-6(3H)-yl)but-2-enamide], in series [4] (setting [5]), the AUC(0-t) was 1450 ng·h/mL, the Cmax came out at 868 ng/mL, the half-life is 2.22 h and the Vd is 3.71 L/kg. In series [4] (setting [6]), the AUC(0-t) was 3190 ng·h/mL, the Cmax came out at 336 ng/mL and the half-life is 3.6 h.

In the case of `O=C(/C=C/CN1C[C@@H]2OCCO[C@@H]2C1)Nc1ccc2ncnc(Nc3ccc(OCc4cccc(F)c4)c(Cl)c3)c2c1` [Example 21, (E)-N-(4-((3-Chloro-4-((3-fluorobenzyl)oxy)phenyl)amino)quinazolin-6-yl)-4-((4aR,7aS)-tetrahydro-2H-[1,4]dioxino[2,3-c]pyrrol-6(3H)-yl)but-2-enamide], the values for the IC50 in series [1], in series [2] and in series [3] were 15 nM, 3.5 nM and 317 nM, respectively.

Turning to `O=C(/C=C/CN1C[C@@H]2OCCO[C@@H]2C1)Nc1ccc2ncnc(Nc3ccc(OCc4ccccn4)c(Cl)c3)c2c1` [Example 22, (E)-N-(4-((3-Chloro-4-(pyridin-2-ylmethoxy)phenyl)amino)quinazolin-6-yl)-4-((4aR,7aS)-tetrahydro-2H-[1,4]dioxino[2,3-c]pyrrol-6(3H)-yl)but-2-enamide], the IC50 in series [1] was determined as 22 nM; in series [2] it was 1.9 nM; in series [3], 47.3 nM.

On to `O=C(/C=C/CN1C[C@@H]2OCCO[C@@H]2C1)Nc1ccc2ncnc(Nc3ccc4c(cnn4Cc4cccc(F)c4)c3)c2c1` [Example 26, (E)-N-(4-((1-(3-Fluorobenzyl)-1H-indazol-5-yl)amino)quinazolin-6-yl)-4-((4aR,7aS)-tetrahydro-2H-[1,4]dioxin[2,3-c]pyrrol-6(3H)-yl)but-2-enamide], for which the IC50 amounted to 14 nM in series [1], 1.6 nM in series [2] and 89.3 nM in series [3].

In series [2], `COc1cc2ncnc(Nc3ccc(OCc4cccc(F)c4)c(Cl)c3)c2cc1NC(=O)/C=C/CN1C[C@@H]2OCCO[C@@H]2C1` [Example 29, (E)-N-(4-((3-Chloro-4-((3-fluorobenzyl)oxy)phenyl)amino)-7-methoxyquinazolin-6-yl)-4-((4aR,7aS)-tetrahydro-2H-[1,4]dioxino[2,3-c]pyrrol-6(3H)-yl)but-2-enamide] yielded an IC50 of 3.7 nM.

In the case of `CCOc1cc2ncnc(Nc3ccc(OCc4cccc(F)c4)c(Cl)c3)c2cc1NC(=O)/C=C/CN1C[C@@H]2OCCO[C@@H]2C1` [Example 30, (E)-N-(4-((3-Chloro-4-((3-fluorobenzyl)oxy)phenyl)amino)-7-ethoxyquinazolin-6-yl)-4-((4aR,7aS)-tetrahydro-2H-[1,4]dioxino[2,3-c]pyrrol-6(3H)-yl)but-2-enamide], the figures for the IC50 in series [1], in series [2] and in series [3] were 31.9 nM, 6.6 nM and 133 nM, respectively.

With `COCCOc1cc2ncnc(Nc3ccc(Cl)c(Cl)c3F)c2cc1NC(=O)/C=C/CN1C[C@@H]2OCCO[C@@H]2C1` [Example 33, (E)-N-(4-((3,4-Dichloro-2-fluorophenyl)amino)-7-(2-methoxyethoxy)quinazolin-6-yl)-4-((4aR,7aS)-tetrahydro-2H-[1,4]dioxino[2,3-c]pyrrol-6(3H)-yl)but-2-enamide], the concentration for half-maximal inhibition (IC50) in series [2] was 9.6 nM. For the same compound, in series [4] (setting [5]), the AUC(0-t) turned out to be 1250 ng·h/mL, the Cmax worked out at 890 ng/mL, the half-life was 1.29 h and the Vd is 2.77 L/kg. The bioavailability in series [4] (po 5 vs iv 2 (g/kg [sic]; mg/kg in method), read-out: F (bioavailability)) is 44.5%. In series [4] (setting [6]), this compound gave an exposure AUC(0-t) of 1370 ng·h/mL, a Cmax of 346 ng/mL and a half-life of 1.27 h.

Consider `COc1cc2ncnc(Nc3ccc(F)c(Cl)c3F)c2cc1NC(=O)/C=C/CN1C[C@@H]2OCCO[C@@H]2C1` [Example 35, (E)-N-(4-((3-Chloro-2,4-difluorophenyl)amino)-7-methoxyquinazolin-6-yl)-4-((4aR,7aS)-tetrahydro-2H-[1,4]dioxino[2,3-c]pyrrol-6(3H)-yl)but-2-enamide], for which the figures for the IC50 in series [1], in series [2] and in series [3] were 0.9 nM, 17.8 nM and 20 nM, respectively.

The values above are taken from US9556191B2, “Aminoquinazoline derivatives and their salts and methods of use thereof” (SUNSHINE LAKE PHARMA CO., LTD, priority 2013, dated 2017).
